Laboratory results taken from patent publication US7045502B2, “Use of melagatran for the manufacture of a medicament for the treatment of Type 1 diabetes mellitus” (AstraZeneca AB, priority 2002, dated 2006).
Entries after “also recorded” stand apart in the source; their conditions may differ.

Assays:
[1] = test system: human islets in ABO-compatible blood (IBMIR); assay: Tubing loop model: human islets perfused with fresh ABO-compatible human blood (IBMIR); assay type: cell-based
Text: (§1) Pancreases were obtained from cadaver donors after consent was obtained either from the organ donor registry or from relatives. The organs were obtained from three female and two male normoglycemic donors (aged 59–85 years, three with blood group 0 and two with blood group A). The islets were isolated at the Division for Clinical Immunology at the University of Uppsala using a modification of previously described semiautomated digestion-filtration methods (Brandhorst et al, Cell Transplant., 7, 489 (1998) and Ricordi et al, Diabetes, 37, 413 (1988)). This isolation procedure was followed by further purification on a continuous density gradient in a refrigerated COBE 2991 centrifuge (COBE Blood Component Technology, Lakewood, Colo., USA). The islets were placed in untreated culture flasks and maintained in suspension culture at 37° C. (5% CO2) for. 1 to 5 days. The culture medium (CMRL 1066; ICN Biomedicals, Costa Mesa, Calif.) was changed every other day. The volume and purity of the islets were determined by microscopic sizing on a grid after staining with diphenylthiocarbazone. The purity of the islet preparations used in this study ranged from 40% and 95% (70±6.3%) (amount of endocrine compared to exocrine/duct tissue in the preparation; mean ±SD). Viability was assessed in terms of insulin secretion in response to a glucose challenge in a dynamic perfusion system (in 1.67 mmol/L glucose, then in 16.7 mmol/L, and finally back to 1.67 mmol/L).
All materials that came in contact with whole blood were furnished with a Corline heparin surface (Corline, Uppsala, Sweden) according to the manufacturer's recommendation (see J. Clin. Immunol., 16, 222 (1996)). The surface concentration of heparin was 0.5 μg/cm^2, corresponding to approximately 0.1 U/cm^2, with an antithrombin binding capacity of 2–4 pmol/cm^2.
Fresh human blood, obtained from healthy volunteers who had received no medication for at least 14 days, was collected in surface-heparinized 60-mL syringes (18 gauge, Microlance; Becton Dickinson, Franklin Lakes, N.J.). The cannulae of the syringes were connected to surface-heparinized-silicon tubing. During sampling, the syringes were rotated continuously.
(§2) A modification of the model previously described was used (see Bennet et al, Diabetes, 48, 1907 (1999), Gong et al, J. Clin. Immunol., 16, 222 (1996) and Larsson et al, Immunophamnacology, 38, 119 (1997)). This device consisted of loops made of PVC (diameter, 6.3 mm; length, 390 mm) whose inner surface was furnished with immobilized heparin. The tubing was held together with a specially designed heparinized connector. A circular loop was formed when the ends of the connector were tightly pushed into the lumen of the tubing ends. A rocking apparatus, placed in a 37° C. incubator, was used to generate blood flow inside the loops. The loops were rocked at a setting that prevented the blood from coming into contact with the connectors. Up to twelve devices could be rocked at the same time. Ten 60-min islet experiments were performed, with islets isolated from five different donors. Melagatran (Astraeneca R&D Mölndal, Sweden), dissolved in 5 mM citrate buffer containing 0.15 M NaCl, pH 5.5, was tested at 0, 0.4 μM, 1 μM, 4 μM, and 10 μM. For each experiment, two loops of fresh human blood without islets, one containing CMRL 1066 (GibcoRBL, USA) and one containing 10 μM melagatran, were included as controls. Fresh ABO-compatible human blood from the same donor (5 mL) was added to each loop. The loops were placed on the rocking device for a 10-min preincubation with melagatran or citrate buffer. Thereafter, the loops were opened, and 150 μL of CMRL 1066, with or without 4 μL of islets (approximately 4,000 IEQ), was added to the loops, followed by another 60-min incubation on the rocking device at 37° C. Blood glucose levels were measured with a glucometer (Glucometer Elite; Bayer Diagnostics, Leverkusen, Germany) before the perfusion. […]

human islets [2] = assay: Islet perfusion system (islet function, insulin secretion); assay type: cell-based; conditions: 10 μM melagatran
Text: as §1, with “The purity of the islet preparations used in this study ranged from 40% and 95% (70±6.3%) (amount of endocrine compared to exocrine/duct tissue in the preparation; mean ±SD).” left out, “mmol/L). […]” for “mmol/L).”

human islets [3] = assay: Immunohistochemical staining of human islets after perfusion in the tubing loop model; assay type: cell-based; conditions: 10 μM melagatran
Text: as §2, with “perfusion. After every perfusion the loop contents were filtered through 70 μm-diameter filters (Filcons, Cuptype; DAKO, Denmark). Both macroscopic blood clots and tissue recovered on the filters were frozen in liquid nitrogen for immunohistochemical staining. For immunohistochemical comparison, non-perfused islets were also frozen and stained by the same procedure.” for “perfusion.”

complement system = assay: Activation of complement in serum in wells of microtiter plates; assay type: biochemical; conditions: human serum, no islets, 0 to 10 μM, 30 min, 37° C.
Experimental: The direct effect of melagatran on the complement system was studied using a method in which serum was incubated in the wells of microtiter plates (Nilsson et al, Mol. Immunol., 30, 211 (1993)). Serum (100 μL) was added to each well of a 96-well microtiter plate together with melagatran at a final concentration of 0, 0.4, 1, 4, or 10 μM. After a 30-min incubation at 37° C., the serum was transferred to tubes containing EDTA (final concentration, 10 mM). These samples were stored at −70° C. before analysis of the complement fragment C3a (see below). In order to detect bound C3 fragments, the wells of the microtiter plates were washed with PBS containing 0.05% (v/v) TWEEN 20 and incubated with 100 μL of horseradish peroxidase (HRP)-conjugated anti-C3c (DAKO. AS, Glostrup, Denmark) for 60 min at 37° C. The binding of antibody was detected by the addition of 1,2-phenylendiamine dihydrochloride (Fluka, Switzerland), and the staining was monitored at 492 nm.
EDTA-plasma was analyzed as previously described (Nilsson Ekdahl et al, Scand. J. Immunol., 35, 85 (1992)). Monoclonal antibody 4SD17.3 was used as capture antibody. Bound C3a was detected with biotinylated polyclonal anti-C3a followed by HRP-conjugated streptavidin (Amersham, Buckinghamshire, UK). Zymosan-activated serum, calibrated against a solution of purified C3a, served as a standard, and the values are given as ng/mL.

[4] = islets, 10 μM melagatran, 60 min perifusion with ABO-compatible blood, mean ± SEM, n=10
[5] = islets, 10 μM melagatran, 60 min perifusion with ABO-compatible blood, plasma, mean ± SEM, n=10

With `N=C(N)c1ccc(CNC(=O)[C@@H]2CCN2C(=O)[C@H](NCC(=O)O)C2CCCCC2)cc1` [melagatran, HOOC—CH2—(R)Cgl-Aze-Pab-H] the “FXIa-AT versus medium control” value ([1]; 4 μM melagatran, FIG. 1B) was “decreased to nearly the same level as the medium control”, the “TAT versus medium control” value ([1]; 4 μM melagatran, FIG. 1B) was “decreased to nearly the same level as the medium control” and the “Cell consumption and cascade system activation” value ([1]; 0.4 to 10 μM, 60 min) was “diminished cell consumption and cascade system activation in a dose-dependent manner”. For the same compound, the “Release of β-TG” value ([1]; at ≧4 μM, FIG. 1A) was “normalized”, the “Inhibition of prothrombin fragment 1+2 formation” value ([1]; compared with 4 μM needed for TAT and FXIa-AT, FIG. 1B) was “required higher doses” and the “Inhibition of IBMIR (overall)” value ([1]; in vitro) was “almost completely inhibits IBMIR; also recorded: abrogated IBMIR”. The Granulocytes [1, 4] was 3.7 ± 0.3 ×10^9/L, the Lymphocytes [1, 4] was 2.0 ± 0.1 ×10^9/L and the Monocytes [1, 4] was 0.6 ± 0.1 ×10^9/L. For the same compound, the Platelets [1, 4] was 170 ± 8.2 ×10^9/L, the C3a [1, 5] was 510 ± 50 ng/mL and the FXIa-AT [1, 5] was 0.9 ± 0.6 µmol/L. The Insulin [1, 5] was 1500 ± 350 mU/L, the “Prothrombin F1 + 2” value [1, 5] was 110 ± 28 nmol/L and the TAT [1, 5] was 890 ± 160 µg/L. The sC5b-9 [1, 5] was 140 ± 17.0 AU/mL, the β-TG [1, 5] was 1300 ± 200 IU/mL and the “Complement activation product C3a” value ([1]; tubing loop with islets, 0 to 10 μM, FIG. 2) was “inhibited”. The “Concentration at which an effect on most parameters was already observed” value ([1]; tubing loop, 60 min) was 0.4 µM, the “Concentration at which cell counts were fully restored” value ([1]; tubing loop, 60 min, FIGS. 1A, 1C) was no less than 4 µM and the “Insulin release on perfusion of islets” value (human islets [2]) was “did not induce insulin release”. The “Subsequent glucose stimulation of islets” value (human islets [2]; glucose 16.7 mmol/L) was “normal”, the “Clot formation around islets” value (human islets [3]; 60 min perfusion with fresh human blood) was “no signs of clot formation” and the “CD11b+ cells penetrated into the islets” value (human islets [3]; 60 min perfusion, anti-CD11b staining) was “only a few”. For the same compound, the “CD41+ platelets surrounding the islet surface” value (human islets [3]; 60 min perfusion, anti-CD41a staining) was “almost no”, the “Binding of C3 fragments to the polystyrene surface” value (complement system) was “no effect” and the “Generation of C3a” value (complement system) was “no effect”.
